The subject of one data set is GBM cell lines. Put plainly: Preliminary screening of cell growth inhibition in GBM cell lines. In kind it is cell-based. As to conditions: for cytotoxicity / cell growth inhibition against GBM cell lines: preliminary screening. The source says:
As such, Hsp90 is an ATP-dependent molecular chaperone that regulates protein conformation, stability, and degradation. Several HSP90 inhibitors have been evaluated for their anti-GBM efficacy at a preliminary level. […] Reduction in the mRNA and protein expression of EGFR, PDGFRA, CDK4, and NF1 in heterogeneous GBM cells was also evidenced in treatment with AUY922.

For a further data set, the target named is EZH2 (Core Histone) (Homo sapiens, UniProt Q15910). Put plainly: EZH2 inhibition assay (Reaction Biology Corporation). The data set is classed as biochemical. Here is the method:
The EZH2 inhibitory ability of the synthesized adduct was assessed by Reaction Biology Corporation, Malvern, PA (http://www.reactionbiology.com).

The test system of the next data set is Pt3R cells. Put plainly: Cell viability / cytotoxicity of TMZ-resistant Pt3R cells (CCK8). The data set is classed as cell-based, human. As to conditions: for pIC50: read-out: Cell growth inhibitory effect IC50.
In another data set the target is HSP90a (Homo sapiens, UniProt P07900). Put plainly: In vitro HSP90 inhibition assay (Reaction Biology Corporation). In kind it is biochemical. Here is the method: The HSP90 inhibitory activity of the synthesized adduct was assessed by Reaction Biology Corporation, Malvern, PA (http://www.reactionbiology.com).
An in-vitro experiment was performed to assess the inhibitory effect of the synthesized adducts on the heat shock protein 90 (HSP90).

The test system of another data set is GBM cells. As to conditions: literature, cited from earlier work.
The subject of another data set is brafv600e mutant GBM. The settings on record: literature; cited from earlier work.

In general, pIC50 refers to the IC50 on a negative log10 scale, so that one unit is a factor of ten.

pIC50: −log10 of the molar value.

Chain of EZH2 (Core Histone) (Q15910 whole entry): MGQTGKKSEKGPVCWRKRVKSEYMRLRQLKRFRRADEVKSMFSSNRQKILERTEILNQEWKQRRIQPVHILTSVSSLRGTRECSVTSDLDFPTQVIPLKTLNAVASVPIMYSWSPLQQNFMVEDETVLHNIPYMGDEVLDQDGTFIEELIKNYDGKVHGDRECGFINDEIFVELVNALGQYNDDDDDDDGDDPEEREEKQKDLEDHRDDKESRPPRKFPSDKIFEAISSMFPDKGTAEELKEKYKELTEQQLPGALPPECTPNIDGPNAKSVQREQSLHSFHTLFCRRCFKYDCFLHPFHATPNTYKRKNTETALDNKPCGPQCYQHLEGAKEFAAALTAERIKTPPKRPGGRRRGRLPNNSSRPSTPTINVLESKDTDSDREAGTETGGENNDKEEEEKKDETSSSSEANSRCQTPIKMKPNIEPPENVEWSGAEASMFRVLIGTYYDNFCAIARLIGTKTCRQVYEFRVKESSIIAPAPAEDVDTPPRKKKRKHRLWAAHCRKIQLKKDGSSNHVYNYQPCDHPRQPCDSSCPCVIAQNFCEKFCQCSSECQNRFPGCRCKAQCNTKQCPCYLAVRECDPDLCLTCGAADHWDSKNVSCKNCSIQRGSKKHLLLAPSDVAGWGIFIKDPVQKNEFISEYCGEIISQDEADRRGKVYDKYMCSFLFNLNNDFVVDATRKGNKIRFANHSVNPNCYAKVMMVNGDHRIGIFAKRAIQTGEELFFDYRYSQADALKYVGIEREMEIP
Chain of EZH2 (Core Histone) (O75530 whole entry partner): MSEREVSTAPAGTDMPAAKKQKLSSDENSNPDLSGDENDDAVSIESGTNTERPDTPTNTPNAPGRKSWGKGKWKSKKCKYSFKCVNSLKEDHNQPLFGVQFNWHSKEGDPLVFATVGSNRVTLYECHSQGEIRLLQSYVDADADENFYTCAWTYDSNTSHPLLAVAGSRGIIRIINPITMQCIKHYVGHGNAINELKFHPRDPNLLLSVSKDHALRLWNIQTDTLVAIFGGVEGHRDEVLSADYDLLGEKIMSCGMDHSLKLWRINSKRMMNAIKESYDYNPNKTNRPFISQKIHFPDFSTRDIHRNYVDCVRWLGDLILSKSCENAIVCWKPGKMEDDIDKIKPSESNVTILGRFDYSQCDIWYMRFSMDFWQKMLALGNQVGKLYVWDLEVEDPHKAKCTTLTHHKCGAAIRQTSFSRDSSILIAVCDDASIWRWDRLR
Chain of EZH2 (Core Histone) (Q15022 whole entry partner): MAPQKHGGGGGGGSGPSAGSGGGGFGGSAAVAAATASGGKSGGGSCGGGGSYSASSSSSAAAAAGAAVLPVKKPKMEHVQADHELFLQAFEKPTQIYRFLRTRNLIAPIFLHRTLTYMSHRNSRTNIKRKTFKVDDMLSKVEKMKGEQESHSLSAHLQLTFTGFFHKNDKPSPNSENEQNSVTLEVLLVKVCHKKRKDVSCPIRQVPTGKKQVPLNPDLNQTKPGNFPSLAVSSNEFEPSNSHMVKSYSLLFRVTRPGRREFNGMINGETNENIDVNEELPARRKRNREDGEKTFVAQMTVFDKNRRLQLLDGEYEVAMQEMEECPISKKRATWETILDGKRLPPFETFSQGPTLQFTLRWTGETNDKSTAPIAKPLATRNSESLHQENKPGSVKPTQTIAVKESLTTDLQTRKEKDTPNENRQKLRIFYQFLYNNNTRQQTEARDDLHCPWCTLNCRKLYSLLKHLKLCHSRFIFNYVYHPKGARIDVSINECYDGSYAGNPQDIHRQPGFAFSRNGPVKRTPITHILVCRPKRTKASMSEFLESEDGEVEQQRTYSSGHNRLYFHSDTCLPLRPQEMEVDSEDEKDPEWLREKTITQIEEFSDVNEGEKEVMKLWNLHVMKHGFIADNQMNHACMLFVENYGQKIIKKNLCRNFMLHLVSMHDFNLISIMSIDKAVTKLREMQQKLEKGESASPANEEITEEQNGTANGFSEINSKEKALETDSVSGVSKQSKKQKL
Chain of EZH2 (Core Histone) (Q09028 whole entry partner): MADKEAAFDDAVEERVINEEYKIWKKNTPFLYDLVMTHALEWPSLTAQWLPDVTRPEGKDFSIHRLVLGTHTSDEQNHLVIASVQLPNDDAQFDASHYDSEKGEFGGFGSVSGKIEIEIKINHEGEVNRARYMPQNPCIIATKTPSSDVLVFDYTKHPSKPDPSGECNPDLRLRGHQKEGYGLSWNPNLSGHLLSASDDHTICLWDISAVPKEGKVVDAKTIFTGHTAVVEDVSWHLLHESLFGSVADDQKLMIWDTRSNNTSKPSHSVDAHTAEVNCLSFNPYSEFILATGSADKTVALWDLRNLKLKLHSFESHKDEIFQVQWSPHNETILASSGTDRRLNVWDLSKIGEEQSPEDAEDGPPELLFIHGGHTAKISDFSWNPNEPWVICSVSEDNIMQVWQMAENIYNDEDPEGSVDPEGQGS
Chain of EZH2 (Core Histone) (Q6ZN18 whole entry partner): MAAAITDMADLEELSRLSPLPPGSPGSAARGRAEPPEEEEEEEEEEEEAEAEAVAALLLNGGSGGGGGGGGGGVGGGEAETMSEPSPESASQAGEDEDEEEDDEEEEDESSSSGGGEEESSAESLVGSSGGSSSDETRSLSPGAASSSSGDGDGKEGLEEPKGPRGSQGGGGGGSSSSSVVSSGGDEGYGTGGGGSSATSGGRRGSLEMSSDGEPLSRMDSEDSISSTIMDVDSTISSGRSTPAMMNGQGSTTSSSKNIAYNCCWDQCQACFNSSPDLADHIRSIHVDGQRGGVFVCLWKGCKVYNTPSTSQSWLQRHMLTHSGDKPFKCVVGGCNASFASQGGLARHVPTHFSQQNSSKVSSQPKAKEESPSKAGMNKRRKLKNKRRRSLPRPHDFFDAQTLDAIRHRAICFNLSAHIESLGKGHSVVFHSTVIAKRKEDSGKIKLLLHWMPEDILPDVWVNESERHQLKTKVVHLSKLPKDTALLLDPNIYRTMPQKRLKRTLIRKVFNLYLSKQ

Consider `CC(C)c1cc(-c2n[nH]c(=O)n2-c2ccc3c(ccn3C)c2)c(O)cc1O` [STA9090], for which, in the data set with GBM cell lines, the “cytotoxicity / cell growth inhibition against GBM cell lines” value is given as “moderate cytotoxicity”. Besides, the “cell growth inhibitory effects relative to the cocktail” value with GBM cell lines (single agent vs combination with Tazemetostat) is listed as “several fold less than that observed with the cocktail”.

For the molecule `CCN(c1cc(-c2ccc(NC(=O)c3cc(C(C)C)c(O)cc3O)cc2)cc(C(=O)NCc2c(C)cc(C)[nH]c2=O)c1C)C1CCOCC1` [Compound 1, 4′-(2,4-dihydroxy-5-isopropylbenzamido)-N-((4,6-dimethyl-2-oxo-1,2-dihydropyridin-3-yl)methyl)-5-(ethyl(tetrahydro-2H-pyran-4-yl)amino)-4-methyl-[1,1′-biphenyl]-3-carboxamide], the figures for the pIC50 against EZH2 (Core Histone) and in the data set on Pt3R cells were 8.21 and below 4.10, respectively. In addition, the “cell growth / viability inhibitory effect in words” value with Pt3R cells is listed as “unable to exert cell growth inhibitory effects”. The “HSP90 inhibitory potential in words” value on HSP90a is “devoid of HSP90 inhibitory potential”.

`CCCN(C(=O)c1cc(C(C)C)c(O)cc1O)c1cccc(-c2cc(C(=O)NCc3c(C)cc(C)[nH]c3=O)c(C)c(N(CC)C3CCOCC3)c2)c1` [Compound 9, 3′-(2,4-dihydroxy-5-isopropyl-N-propylbenzamido)-N-((4,6-dimethyl-2-oxo-1,2-dihydropyridin-3-yl)methyl)-5-(ethyl(tetrahydro-2H-pyran-4-yl)amino)-4-methyl-[1,1′-biphenyl]-3-carboxamide]: the negative-log IC50 (pIC50) at EZH2 (Core Histone) is 7.40. Also, in the data set with Pt3R cells, the “cell growth / viability inhibitory effect in words” value is “unable to exert cell growth inhibitory effects” and the pIC50 was below 4.10. Besides, on HSP90a, the “HSP90 inhibitory potential in words” value was “could not replicate the activity-conferring trends” and the pIC50 is 5.03.

With `CCN(c1cc(-c2ccc(N(Cc3ccccc3)C(=O)c3cc(C(C)C)c(O)cc3O)cc2)cc(C(=O)NCc2c(C)cc(C)[nH]c2=O)c1C)C1CCOCC1` [Compound 6, 4′-(N-benzyl-2,4-dihydroxy-5-isopropylbenzamido)-N-((4,6-dimethyl-2-oxo-1,2-dihydropyridin-3-yl)methyl)-5-(ethyl(tetrahydro-2H-pyran-4-yl)amino)-4-methyl-[1,1′-biphenyl]-3-carboxamide], the pIC50 at EZH2 (Core Histone) was 7.93; in the data set on Pt3R cells, below 4.10. Further, the “HSP90 inhibitory potential in words” value at HSP90a was “could not replicate the activity-conferring trends”.

For the molecule `O=C1C=C(Nc2ccc3cnccc3c2)c2ccccc2C1=O` [YZ129], the “anti-GBM effect in GBM cells” value with GBM cells is “promoted apoptosis and exerted GBM cell cycle arrest at the G2/M phase, inhibiting tumour cell proliferation and migration”.

Regarding `COc1c(C)cnc(Cn2cnc3c(Cl)nc(N)nc32)c1C` [BIIB021], in the data set with brafv600e mutant GBM, the “resistance to molecular targeted therapy” value is on record as “overcome resistance to molecular targeted therapy”.

Molecule `CCN(C(=O)c1cc(C(C)C)c(O)cc1O)c1cccc(-c2cc(C(=O)NCc3c(C)cc(C)[nH]c3=O)c(C)c(N(CC)C3CCOCC3)c2)c1` [Compound 8, N-((4,6-dimethyl-2-oxo-1,2-dihydropyridin-3-yl)methyl)-5-(ethyl(tetrahydro-2H-pyran-4-yl)amino)-3′-(N-ethyl-2,4-dihydroxy-5-isopropylbenzamido)-4-methyl-[1,1′-biphenyl]-3-carboxamide] had a pIC50 at EZH2 (Core Histone) of 7.44. Moreover, in the data set on Pt3R cells, the “cell growth / viability inhibitory effect in words” value was “the only ones to exert cell viability inhibitory potential” and the pIC50 is 4.97. Besides, on HSP90a, the “HSP90 inhibitory potential in words” value is “conferred HSP90 inhibitory potential” and the pIC50 was 7.20.

With `CCCN(C(=O)c1cc(C(C)C)c(O)cc1O)c1ccc(-c2cc(C(=O)NCc3c(C)cc(C)[nH]c3=O)c(C)c(N(CC)C3CCOCC3)c2)cc1` [Compound 5, 4′-(2,4-dihydroxy-5-isopropyl-N-propylbenzamido)-N-((4,6-dimethyl-2-oxo-1,2-dihydropyridin-3-yl)methyl)-5-(ethyl(tetrahydro-2H-pyran-4-yl)amino)-4-methyl-[1,1′-biphenyl]-3-carboxamide], the values for the pIC50 on EZH2 (Core Histone) and in the data set on Pt3R cells were 7.66 and below 4.10, respectively. Besides, on HSP90a, the “HSP90 inhibitory potential in words” value was “could not replicate the activity-conferring trends”.

On EZH2 (Core Histone), `CCN(c1cc(-c2cccc(NC(=O)c3cc(C(C)C)c(O)cc3O)c2)cc(C(=O)NCc2c(C)cc(C)[nH]c2=O)c1C)C1CCOCC1` [Compound 2, 3′-(2,4-dihydroxy-5-isopropylbenzamido)-N-((4,6-dimethyl-2-oxo-1,2-dihydropyridin-3-yl)methyl)-5-(ethyl(tetrahydro-2H-pyran-4-yl)amino)-4-methyl-[1,1′-biphenyl]-3-carboxamide] showed a pIC50 of 8.69. For the same molecule, on EZH2 (Core Histone) (compound 2 (3′) vs counterpart 1 (4′)), the “potency in inhibiting EZH2 relative to compound 1” value was found to be 3 fold. Also, in the data set with Pt3R cells, the “cell growth / viability inhibitory effect in words” value is listed as “unable to exert cell growth inhibitory effects” and the pIC50 is below 4.10. The “HSP90 inhibitory potential in words” value on HSP90a was “devoid of HSP90 inhibitory potential”.

Molecule `CCN(C(=O)c1cc(C(C)C)c(O)cc1O)c1ccc(-c2cc(C(=O)NCc3c(C)cc(C)[nH]c3=O)c(C)c(N(CC)C3CCOCC3)c2)cc1` [Compound 4, N-((4,6-dimethyl-2-oxo-1,2-dihydropyridin-3-yl)methyl)-5-(ethyl(tetrahydro-2H-pyran-4-yl)amino)-4′-(N-ethyl-2,4-dihydroxy-5-isopropylbenzamido)-4-methyl-[1,1′-biphenyl]-3-carboxamide] gave a pIC50 at EZH2 (Core Histone) of 8.13. For the same molecule, at HSP90a, the “HSP90 inhibitory potential in words” value was “conferred HSP90 inhibitory potential” and the pIC50 was 6.08.

Take `CCNC(=O)c1noc(-c2cc(C(C)C)c(O)cc2O)c1-c1ccc(CN2CCOCC2)cc1` [AUY922]: in the data set with GBM cells (heterogeneous GBM cells), the “mRNA and protein expression of EGFR, PDGFRA, CDK4, and NF1” value was “Reduction”. The “anti-GBM effect in GBM cells” value with GBM cells is “led to GBM cell death via apoptosis and autophagy”.

Take `CCN(c1cc(-c2ccc(N(C)C(=O)c3cc(C(C)C)c(O)cc3O)cc2)cc(C(=O)NCc2c(C)cc(C)[nH]c2=O)c1C)C1CCOCC1` [Compound 3, 4′-(2,4-dihydroxy-5-isopropyl-N-methylbenzamido)-N-((4,6-dimethyl-2-oxo-1,2-dihydropyridin-3-yl)methyl)-5-(ethyl(tetrahydro-2H-pyran-4-yl)amino)-4-methyl-[1,1′-biphenyl]-3-carboxamide]: the values for the pIC50 against EZH2 (Core Histone), in the data set on Pt3R cells and against HSP90a were 8.14, 4.56 and 6.46, respectively. Further, in the data set on Pt3R cells, the “cell growth / viability inhibitory effect in words” value is reported as “the only ones to exert cell viability inhibitory potential”. In addition, the “HSP90 inhibitory potential in words” value on HSP90a was “conferred HSP90 inhibitory potential”.

As for `CCN(c1cc(-c2ccc(CN3CCOCC3)cc2)cc(C(=O)NCc2c(C)cc(C)[nH]c2=O)c1C)C1CCOCC1` [Tazemetostat], the anti-GBM efficacy entry with GBM cell lines is “did not exhibit anti-GBM efficacy”. In addition, the “cytotoxicity / cell growth inhibition against GBM cell lines” value is recorded as “cytotoxicity-devoid trends” in the data set on GBM cell lines (listed as tazemetosat) and “could not exert cell growth inhibitory potential against the GBM cell lines” with GBM cell lines (listed as tazemetostat (I)). Also, the “cell growth / viability inhibitory effect in words” value in the data set with Pt3R cells was “unable to exert cell growth inhibitory effects”.

Regarding `CCN(c1cc(-c2cccc(N(Cc3ccccc3)C(=O)c3cc(C(C)C)c(O)cc3O)c2)cc(C(=O)NCc2c(C)cc(C)[nH]c2=O)c1C)C1CCOCC1` [Compound 10, 3′-(N-benzyl-2,4-dihydroxy-5-isopropylbenzamido)-N-((4,6-dimethyl-2-oxo-1,2-dihydropyridin-3-yl)methyl)-5-(ethyl(tetrahydro-2H-pyran-4-yl)amino)-4-methyl-[1,1′-biphenyl]-3-carboxamide], the pIC50 on EZH2 (Core Histone) was 6.19; in the data set on Pt3R cells it was below 4.10; against HSP90a, 5.55. The “cell growth / viability inhibitory effect in words” value with Pt3R cells is listed as “unable to exert cell growth inhibitory effects”. For the same molecule, the “HSP90 inhibitory potential in words” value at HSP90a was “could not replicate the activity-conferring trends”.

The record behind these values is patent US20260365637A1, “DUAL EZH2-HSP90 INHIBITORS” (TAIPEI MEDICAL UNIVERSITY, priority 2023, published 2026).
